Reference: publication PMC7617869, “Molecular glues that inhibit deubiquitylase activity and inflammatory signaling” (Nature Structural & Molecular Biology, 2025)
Where “and” joins values, the source holds several entries; their conditions need not be identical. Equal values may be shown once. Read-outs that look alike come from different tables or passages of the source.

Legend:
BRISC = molecular target: T1, BRISC (Homo sapiens, UniProt P46736+Q15018+Q9NXR7); test: BRISC DUB activity assay (IQF K63-linked diubiquitin); assay type: biochemical
T1 construct: made in house; host or cells: Spodoptera frugiperda (Sf9) insect cells, MultiBac
How it was run: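 Cleavage of 50 nM IQF K63-linked diubiquitin was followed by fluorescence (ex 544 nm, em 575 nm) every minute for 30 min at 30 °C in 50 mM HEPES–NaOH pH 7.0, 100 mM NaCl, 0.1 mg ml^−1 BSA, 1 mM DTT, 0.03% Brij-35. BRISC WT and mutants were at 1 nM final. IC50 values came from variable-slope fits of initial velocity.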

[1] = test system: IFNAR1 cell surface levels in sgROSA MCF10A cells; test: MCF10A sgROSA IFNAR1 cell surface levels (FACS); assay type: cell-based, human
Protocol: To study the direct effect of BRISC DUB inhibitors, IFNAR1 surface levels were measured using flow cytometry (FACS) analysis. For this purpose, MCF10A WT and MCF10A BRCC45 KO cells expressing […]
BRCC45 WT or BRCC45 R137A were used. […]
minutes prior to the addition of 50 ng/mL of hIFN-Iα for various time points (45 minutes and 90 minutes).
After IFN treatment, cells were dissociated from plate using cell dissociation Buffer (ThermoFisher Scientific, #13150016) and were stained with LIVE/DEAD™ Fixable Violet Dead Cell Stain Kit, for 405 nm excitation (ThermoFisher Scientific, #L34963) for 30 minutes, as per the kit protocol. The cells were then washed using FACS buffer (DPBS, 1% BSA, 2 mM EDTA, 0.09% sodium azide) and transferred to 96-well round bottom plates. Resuspended cells were divided into three repeats for each sample, each was surface stained for 1 hour at 4 °C with: 1. Human IFN-alpha/beta R1 Antibody (R&D systems, #MAB245), 2. Mouse IgG1 Isotype Control (R&D systems, #MAB002), 3. FACS buffer (control cells).
Following incubation, cells were washed once with FACS buffer and were labelled for 30 minutes at 4 °C with either Biotin-SP-conjugated AffiniPure Donkey Anti-Mouse IgG (H+L) (Jackson Immunoresearch Laboratories) for samples 1 and 2 or with FACS buffer for sample 3. Cells were washed twice with FACS buffer and were labelled for 15 minutes at 4 °C with either R-Phycoerythrin-conjugated Streptavidin (Jackson Immunoresearch Laboratories) for samples 1 and 2 or with FACS buffer for sample 3. Cells were washed 3 times with FACS buffer and were analysed by FACS (MACSQuant, Miltenyi Biotec). For each sample from group 1 the Geo mean fluorescence intensity (MFI) of its isotype sample was reduced. IFNAR1 cell surface percentage was calculated by 100*(MFI

**Q.** How did the IC50 (BRISC; 32-point dose-response, biphasic fit, read-out: IC50(1), biphasic curve) turn out when `O=C(NC1CCNCC1)c1nn(C(=O)c2c(Cl)cccc2Cl)cc1NC(=O)c1c(Cl)cccc1Cl` [JMS-175-2] was run?
**A.** 1100 nM

**Q.** And the IC50 (BRISC; 32-point dose-response, biphasic fit, read-out: IC50(2), biphasic curve)?
**A.** 168 nM

**Q.** And the “Normalised V0” value (BRISC; Fig. 1e, BRISC, JMS-175-2 1.9996 μM)?
**A.** 0.6565 and 0.4518

**Q.** And the “Normalised V0” value (BRISC; Fig. 1e, BRISC, JMS-175-2 5.19739 μM)?
**A.** 0.283 and 0.275 and 0.3465

**Q.** What about the “Normalised V0” value (BRISC; Fig. 1d, log[compound (μM)] 0.0000, listed as H20) of the same molecule?
**A.** 0.6438 and 0.8274 and 0.7444

**Q.** And the “Normalised V0” value (BRISC; Fig. 1d, log[compound (μM)] 0.3979, listed as H20)?
**A.** 0.5783 and 0.5268 and 0.4841

**Q.** What about the “Normalised V0” value (BRISC; Fig. 1d, log[compound (μM)] 0.6990, listed as H20) of the same molecule?
**A.** 0.3795 and 0.3824 and 0.3190

**Q.** What about the “Normalised V0” value (BRISC; Fig. 1d, log[compound (μM)] 1.0000, listed as H20) of the same molecule?
**A.** 0.2528 and 0.2942 and 0.2669

**Q.** What about the “Normalised V0” value (BRISC; Fig. 1d, log[compound (μM)] 1.4771, listed as H20) of the same molecule?
**A.** 0.1351 and 0.1861 and 0.1726

**Q.** And the “Normalised V0” value (BRISC; Fig. 1d, log[compound (μM)] 1.6990, listed as H20)?
**A.** 0.1117 and 0.1567 and 0.1200

**Q.** And the “Normalised V0” value (BRISC; Fig. 1d, log[compound (μM)] -0.3010, listed as H20)?
**A.** 0.9255 and 0.9030

**Q.** What about the “Normalised V0” value (BRISC; Fig. 1d, log[compound (μM)] -1.0000, listed as H20) of the same molecule?
**A.** 0.9975 and 1.0280 and 1.0210

**Q.** And the “Normalised V0” value (BRISC; Fig. 1d, log[compound (μM)] -2.0000, listed as H20)?
**A.** 1.0150 and 0.9155 and 1.0690

**Q.** And the IC50 (BRISC; IQF K63-linked diubiquitin substrate, read-out: IC50, inhibition of BRISC DUB activity)?
**A.** 3800 nM

**Q.** And the “Normalised V0” value (BRISC; [Inhibitor] 0.013 μM, replicate columns)?
**A.** 0.9583 and 0.7384 and 1.046 and 0.967 and 0.8595 and 0.8402

**Q.** What about the “Normalised V0” value (BRISC; [Inhibitor] 0.02 μM, replicate columns) of the same molecule?
**A.** 0.8771 and 0.8197 and 1.004

**Q.** And the “Normalised V0” value (BRISC; [Inhibitor] 0.0399999 μM, replicate columns)?
**A.** 1.299 and 0.7892 and 1.03

**Q.** And the “Normalised V0” value (BRISC; [Inhibitor] 0.0599997 μM, replicate columns)?
**A.** 0.839 and 0.6819 and 0.9433

**Q.** And the “Normalised V0” value (BRISC; [Inhibitor] 0.0799994 μM, replicate columns)?
**A.** 0.9097 and 0.9012 and 0.9628

**Q.** And the “Normalised V0” value (BRISC; [Inhibitor] 0.119998 μM, replicate columns)?
**A.** 1.013 and 0.9179 and 1.054

**Q.** What about the “Normalised V0” value (BRISC; [Inhibitor] 0.199996 μM, replicate columns) of the same molecule?
**A.** 1.253 and 0.7708 and 1.101

**Q.** What about the “Normalised V0” value (BRISC; [Inhibitor] 0.499975 μM, replicate columns) of the same molecule?
**A.** 0.5936 and 0.7022 and 0.9756

**Q.** And the “Normalised V0” value (BRISC; [Inhibitor] 0.799936 μM, replicate columns)?
**A.** 0.9296 and 0.6017 and 0.8518

**Q.** And the “Normalised V0” value (BRISC; [Inhibitor] 1.25984 μM, replicate columns)?
**A.** 1.139 and 0.471 and 0.8066

**Q.** What about the “Normalised V0” value (BRISC; [Inhibitor] 1.9996 μM, replicate columns) of the same molecule?
**A.** 0.6565 and 0.4518 and 0.6268

**Q.** And the “Normalised V0” value (BRISC; [Inhibitor] 3.159 μM, replicate columns)?
**A.** 0.6624 and 0.3061 and 0.5597

**Q.** What about the “Normalised V0” value (BRISC; [Inhibitor] 5.19739 μM, replicate columns) of the same molecule?
**A.** 0.283 and 0.275 and 0.3465

**Q.** And the “Normalised V0” value (BRISC; [Inhibitor] 7.99364 μM, replicate columns)?
**A.** 0.6473 and 0.2184 and 0.4215

**Q.** What about the “Normalised V0” value (BRISC; [Inhibitor] 12.7839 μM, replicate columns) of the same molecule?
**A.** 0.4135 and 0.1798 and 0.2477

**Q.** What about the “Normalised V0” value (BRISC; [Inhibitor] 19.96 μM, replicate columns) of the same molecule?
**A.** 0.3284 and 0.5166 and 0.3249

**Q.** What about the “Normalised V0” value (BRISC; [Inhibitor] 31.4999 μM, replicate columns) of the same molecule?
**A.** 0.6187 and 0.1303 and 0.1533

**Q.** And the “Normalised V0” value (BRISC; [Inhibitor] 50.147 μM, replicate columns)?
**A.** 0.2621 and 0.1377 and 0.1733

**Q.** And the “Normalised V0” value (BRISC; [Inhibitor] 79.7601 μM, replicate columns)?
**A.** 0.2164 and 0.1356 and 0.1726

**Q.** And the “Normalised V0” value (BRISC; [Inhibitor] 125.99 μM, replicate columns)?
**A.** 0.1111 and 0.1816 and 0.02719

**Q.** And the “Normalised V0” value (BRISC; [Inhibitor] 199.922 μM, replicate columns)?
**A.** -0.03072 and 0.01018 and -0.03521

**Q.** What about the “Normalised velocity (V0)” value (BRISC; inhibitor 0.000794328 μM) of the same molecule?
**A.** 1

**Q.** What about the “Normalised velocity (V0)” value (BRISC; inhibitor 0.00125892 μM) of the same molecule?
**A.** 0.9579 and 1.034

**Q.** And the “Normalised velocity (V0)” value (BRISC; inhibitor 0.00199526 μM)?
**A.** 1.01 and 0.9969

**Q.** And the “Normalised velocity (V0)” value (BRISC; inhibitor 0.00316228 μM)?
**A.** 0.9962 and 1.154

**Q.** And the “Normalised velocity (V0)” value (BRISC; inhibitor 0.00501187 μM)?
**A.** 0.9932 and 1.028

**Q.** What about the “Normalised velocity (V0)” value (BRISC; inhibitor 0.00794328 μM) of the same molecule?
**A.** 1.087 and 1.121

**Q.** And the “normalised V0, Mean” value (BRISC; inhibitor 0.01 μM)?
**A.** 1

**Q.** What about the “Normalised velocity (V0)” value (BRISC; inhibitor 0.0125893 μM) of the same molecule?
**A.** 1.059 and 1.016

**Q.** What about the “Normalised velocity (V0)” value (BRISC; inhibitor 0.0199526 μM) of the same molecule?
**A.** 1.08 and 1.097

**Q.** And the “Normalised velocity (V0)” value (BRISC; inhibitor 0.0316228 μM)?
**A.** 1.03 and 1.101

**Q.** And the “Normalised velocity (V0)” value (BRISC; inhibitor 0.0501187 μM)?
**A.** 1.036 and 1.109

**Q.** What about the “normalised V0, Mean” value (BRISC; inhibitor 0.0781 μM) of the same molecule?
**A.** 0.9992

**Q.** What about the “Normalised velocity (V0)” value (BRISC; inhibitor 0.0794328 μM) of the same molecule?
**A.** 1.026 and 1.083

**Q.** And the “Normalised velocity (V0)” value (BRISC; inhibitor 0.125893 μM)?
**A.** 0.8526 and 0.9544

**Q.** What about the “Normalised velocity (V0)” value (BRISC; inhibitor 0.199526 μM) of the same molecule?
**A.** 0.6481 and 0.8082

**Q.** What about the “Normalised velocity (V0)” value (BRISC; inhibitor 0.316228 μM) of the same molecule?
**A.** 0.694 and 0.5793

**Q.** And the “Normalised velocity (V0)” value (BRISC; inhibitor 0.398107 μM)?
**A.** 0.5098 and 0.5762

**Q.** And the “Normalised velocity (V0)” value (BRISC; inhibitor 0.630957 μM)?
**A.** 0.4827 and 0.4555

**Q.** What about the “normalised V0, Mean” value (BRISC; inhibitor 0.7812 μM) of the same molecule?
**A.** 0.7414

**Q.** And the “Normalised velocity (V0)” value (BRISC; inhibitor 1 μM)?
**A.** 0.3835 and 0.2691

**Q.** And the “normalised V0, Mean” value (BRISC; inhibitor 1.562 μM)?
**A.** 0.5385

**Q.** What about the “Normalised velocity (V0)” value (BRISC; inhibitor 1.58489 μM) of the same molecule?
**A.** 0.2248 and 0.2189

**Q.** What about the “Normalised velocity (V0)” value (BRISC; inhibitor 2.51189 μM) of the same molecule?
**A.** 0.2301 and 0.1988

**Q.** And the “normalised V0, Mean” value (BRISC; inhibitor 3.12 μM)?
**A.** 0.384

**Q.** And the “Normalised velocity (V0)” value (BRISC; inhibitor 3.98107 μM)?
**A.** 0.1293 and 0.1933

**Q.** And the “normalised V0, Mean” value (BRISC; inhibitor 6.25 μM)?
**A.** 0.2986

**Q.** And the “Normalised velocity (V0)” value (BRISC; inhibitor 6.30957 μM)?
**A.** 0.09323 and 0.07115

**Q.** And the “normalised V0, Mean” value (BRISC; inhibitor 12.3 μM)?
**A.** 0.2014

**Q.** What about the “Normalised velocity (V0)” value (BRISC; inhibitor 15.8489 μM) of the same molecule?
**A.** 0.009774 and 0.01547

**Q.** And the “normalised V0, Mean” value (BRISC; inhibitor 24.54 μM)?
**A.** 0.1684

**Q.** And the “Normalised velocity (V0)” value (BRISC; inhibitor 25.1189 μM)?
**A.** 0

**Q.** And the “Normalised velocity (V0)” value (BRISC; inhibitor 39.8107 μM)?
**A.** 0

**Q.** And the “normalised V0, Mean” value (BRISC; inhibitor 48.9 μM)?
**A.** 0.1492

**Q.** What about the “Normalised velocity (V0)” value (BRISC; inhibitor 63.0957 μM) of the same molecule?
**A.** 0

**Q.** And the “Normalised velocity (V0)” value (BRISC; inhibitor 100 μM)?
**A.** 0

**Q.** And the “normalised V0, Mean” value (BRISC; inhibitor 100 μM)?
**A.** 0.04999

**Q.** What about the “normalised V0, Mean” value (BRISC; inhibitor 199.5 μM) of the same molecule?
**A.** 0.004784

**Q.** What about the “IFNAR1 cell surface levels” value ([1]; IFN + compound, three replicates) of the same molecule?
**A.** 40.6849 and 39.7065 and 39.3396

**Q.** What about the “IFNAR1 cell surface levels” value ([1]; sgROSA cells, IFN 50 ng/ml, 5 μM, 90 min) of the same molecule?
**A.** reduction in IFNAR1 cell surface levels
